The nature of data set [1]: method code SF-HPLC, from DOI: 10.1016/j.bmc.2009.01.040, PMID: 19208447. Particulars: pH 7.0.
Data set [2] in a line: method code SF-HPLC, from DOI: 10.1584/jpestics.11.469.
Test in data set [3]: not given
The source holds these as a separate data set.

Test in data set [4]: not given
This is another data set of the same source.

The nature of data set [5]: method code RP-HPLC, from DOI: 10.1021/jm970292n, PMID: 9371243.
Test in data set [6]: not given
The source holds these as a separate data set.

A short description of data set [7]: method code SF, from DOI: 10.1016/j.nucmedbio.2007.12.009, PMID: 18355686. Particulars: pH 7.4.
Data set [8] is described as follows: method code SF-AS, from DOI: 10.1016/j.arabjc.2011.11.013.
Data set [9] in a line: method code SF-RC, from DOI: 10.1016/j.bmc.2006.11.022, PMID: 17293116. Particulars: pH 7.4.
Test in data set [10]: not given
This is another data set of the same source.

Data set [11] can be described thus: method code SF-GR, from DOI: 10.1016/s0022-3565(25)32611-x, PMID: 7230009.
Data set [12] in a line: method code SF-AS, from PMID: 1586384.
Data set [13] can be described thus: method code SF-AS, from DOI: 10.1016/s0014-827x(98)00024-x, PMID: 9679281.
Test in data set [14]: not given
This is another data set of the same source.

Data set [15] in a line: method code SF-AS, from DOI: 10.1248/bpb1978.7.120, PMID: 6427444.
Data set [16] in a line: method code SF-HPLC, from DOI: 10.1016/j.ejmech.2003.12.002, PMID: 15051170.
Data set [17] can be described thus: method code SF-HPLC, from DOI: 10.1016/0378-5173(94)90060-4. Particulars: pH 5.0.
Test in data set [18]: not given
The source holds these as a separate data set.

Data set [19] is described as follows: method code SF-AS, from DOI: 10.1002/jps.2600790421, PMID: 2352153.
The nature of data set [20]: method code SF-HPLC, from Thijssen, W. (1981). The relationship between Log P, Rm, log k' and the constants pi and f: a study on penicillins. Eur J Med Chem, 16(5)449-452.
Data set [21] in a line: method code SF-AS, from DOI: 10.1016/s0022-5347(24)07568-2, PMID: 4149453. Particulars: pH 7.5.
Test in data set [22]: not given
This is another data set of the same source.

Data set [23] is described as follows: method code SF-RC, from DOI: 10.1016/j.bmc.2015.06.036, PMID: 26145817. Particulars: pH 7.4.
Data set [24] can be described thus: method code SF-HPLC, from DOI: 10.1016/j.jpba.2011.06.023, PMID: 21782368. Particulars: pH 7.4.
Data set [25] can be described thus: method code SF-GLC, from DOI: 10.1023/a:1015803202857, PMID: 2395795.
The nature of data set [26]: method code SF-AS, from DOI: 10.1007/bf02857814, PMID: 1608986.

In data set [1], `CC(C(=O)OCC(O)C(O)C(O)C(O)CO)c1cccc(C(=O)c2ccccc2)c1` (centres undefined) had a log distribution coefficient (logD) of 0.78.

For the molecule `CN1CCN(C(COCc2cc(C(F)(F)F)cc(C(F)(F)F)c2)c2ccccc2)CC1` (centres undefined), the logP is 3.2.

In [2], `CCOC(=O)C(C)Oc1ccc(Oc2cnc3cc(C(F)(F)F)ccc3n2)cc1` (centres undefined) displayed a logP of 4.37.

For `CC(C)NCC(COc1cccc2ccccc12)OC(=O)C(C)C` (centres undefined), the logP in data set [3] was 3.52.

The molecule `COc1cc2c(Nc3ccc(Cl)cc3F)ncnc2cc1OCCCN1CCN(C)CC1` came in with a lipophilicity (logP) in data set [4] of 3.3.

`CC(C(=O)OCC(O)C(O)C(O)C(O)C=O)c1cccc(C(=O)c2ccccc2)c1` (centres undefined) registered a logD in data set [1] of 1.26.

For `O=C1c2c(O)cccc2Cc2cccc(-c3ccccc3)c21`, in data set [5], the lipophilicity (logP) amounted to 3.99.

`CC#CC1(O)CC[C@H]2[C@@H]3CCC4=CC(=O)CCC4=C3C(c3ccc(N(C)C)cc3)C[C@@]21C` (some centres undefined): the logP in data set [6] is 4.69.

Take `CCC(C)N(C)C(=O)c1cc2ccccc2c(-c2ccccc2Cl)n1` (centres undefined): the logD in [7] was determined as 4.

With `CC(C)NCC(COc1cccc2ccccc12)OC(=O)C1CC1` (centres undefined), the logP in [3] was 3.68.

Molecule `CCOC(=O)C(C)Oc1ccc(Oc2cnc3ccccc3n2)cc1` (centres undefined) registered a logP in data set [2] of 3.48.

In data set [8], `O=C(CNc1ccc([N+](=O)[O-])cc1)Nc1ccc(Cl)cc1C(=O)c1ccccc1` came in with a log partition coefficient (logP) of 4.68.

In data set [9], `COc1ccc2nc(-c3ccc4nc(-c5ccc(N)cc5)sc4c3)sc2c1` displayed a logD of 1.56.

Consider `CN(C)CCC=C1c2ccccc2CSc2ccccc21`, for which the logP in data set [10] is 4.49.

In data set [11], `CC1(C)[C@@H](O)C[C@H]2[C@](C)(O)[C@@H]3CC[C@@H]4[C@@H](O)[C@@]3(C[C@@H](O)[C@@]21O)C[C@@]4(C)O` gave a logP of 0.27.

With `CC(=O)OCOC(=O)c1cn2c3c(c(N4CCN(C)CC4)c(F)cc3c1=O)OCC2C` (centres undefined), the logP in data set [12] was 0.02.

Take `COC(=O)CN1CCN(C(COCc2cc(C(F)(F)F)cc(C(F)(F)F)c2)c2ccccc2)CC1` (centres undefined): the logP came to 3.11.

The molecule `Cc1[nH]c2ccccc2c1Cc1nnc(Nc2cccc3ccccc23)s1` registered a logP in data set [13] of 3.78.

In turn, `CC1CC2C3CCC4=CC(=O)CCC4C3CCC2(C)C1C(=O)CF` (centres undefined) showed a logP in data set [14] of 4.66.

In turn, `CC(=O)N(Cc1ccccc1OCCF)c1cnccc1Oc1ccccc1` had a logD in data set [7] of 2.99.

`CO[C@@]12[C@H](COC(N)=O)C3=C(C(=O)C(C)=C(N)C3=O)N1C[C@H]1[C@@H]2N1Cc1ccccc1` (some centres undefined): the log partition coefficient (logP) in [15] turned out to be 1.59.

Consider `COC(=O)C(C)NP(=O)(OCC1C=CC(n2cc(C)c(=O)[nH]c2=O)O1)Oc1cc(Cl)ccc1Cl` (centres undefined), for which the logP in [16] was found to be 1.41.

`CCCOC(=O)n1c(NC(=O)OC)nc2cc(C(=O)c3ccccc3)ccc21` yielded a log distribution coefficient (logD) in data set [17] of 3.43.

Molecule `CC1(C)[C@H]2O[C@H]2[C@@H]2[C@]1(O)[C@H](O)[C@@H](O)C13C[C@@](C)(O)[C@@H](CC[C@@]1(O)[C@@]2(C)O)[C@@H]3O` displayed a logP in data set [11] of -0.57.

`O=C1CC[C@@](c2ccccc2)(C2CCN(Cc3ccccc3)CC2)C(=O)N1` displayed a logP in data set [18] of 3.55.

`CC(C)[C@H](NC(=O)[C@H](c1ccccc1)N(CCCl)N=O)C(=O)NC(=O)NCCCl`: the logP in data set [19] was determined as 3.32.

Take `Cc1onc(-c2ccccc2)c1C(=O)NC1C(=O)N2C1S(=O)C(C)(C)C2C(=O)O` (centres undefined): the logP in [20] stood at 1.8.

Regarding `COC(=O)CC[C@H](NC(=O)c1cc(Cl)c(N(C)Cc2cnc3nc(N)nc(N)c3n2)c(Cl)c1)C(=O)OC`, the logD in [21] came out at 1.69.

Take `C=CCOc1ccccc1OCC(CNC(C)C)OC(=O)CCCC` (centres undefined): in [22], the logP came to 4.

With `Cc1onc(-c2c(Cl)cccc2Cl)c1C(=O)NC1C(=O)N2C1SC(C)(C)C2C(=O)O` (centres undefined), the log partition coefficient (logP) in data set [20] came out at 2.89.

With `CCOC(=O)n1c(NC(=O)OC)nc2cc(C(=O)c3ccccc3)ccc21`, the pH-dependent lipophilicity (logD) in data set [17] stood at 2.93.

Consider `CCN(CCCCF)c1cc(C)nc2c(-c3ccc(Cl)cc3Cl)c(C)nn12`, for which, in data set [23], the logD is 2.81.

`CN(C)CCC=C1c2ccccc2CCc2c(Cl)cccc21` registered a logP in data set [18] of 5.55.

In the case of `CC(C)[C@H](NC(=O)[C@H](Cc1ccccc1)N(CCCl)N=O)C(=O)NC(=O)NCCCl`, the logP in data set [19] came out at 3.46.

For the molecule `Nc1ccc(S(=O)(=O)NCC(=O)Nc2ccc(Cl)cc2C(=O)c2ccccc2)cc1`, in data set [8], the logP amounted to 3.24.

As to `C=CCOc1ccccc1OCC(CNC(C)C)OC(=O)/C=C/C` (centres undefined), the log partition coefficient (logP) in data set [22] is 3.65.

`COc1cc2c(Nc3ccc(Cl)cc3F)ncnc2cc1OCCCN1CCOCC1`: the logP in data set [4] was determined as 3.6.

`CCN(CCOCCF)c1cc(C)nc2c(-c3ccc(Cl)cc3Cl)c(C)nn12` registered a logD in data set [23] of 3.8.

Turning to `CC(=O)OC(C)OC(=O)c1cn2c3c(c(N4CCN(C)CC4)c(F)cc3c1=O)OCC2C` (centres undefined), the log partition coefficient (logP) in data set [12] turned out to be 0.26.

With `CO[C@@]12[C@H](COC(N)=O)C3=C(C(=O)C(C)=C(N)C3=O)N1C[C@H]1[C@@H]2N1C(=O)c1ccccc1`, the lipophilicity (logP) in [15] worked out at 1.89.

In data set [24], `CCCOC(=O)CC(CNC(=O)OC(C)(C)C)c1ccc(Cl)cc1` (centres undefined) returned a pH-dependent lipophilicity (logD) of 3.

For the molecule `CC1CC2C3CCC4=CC(=O)CCC4C3CCC2(C)C1C(=O)CO` (centres undefined), the logP in data set [14] was determined as 4.02.

In data set [21], `CCOC(=O)CC[C@H](NC(=O)c1ccc(N(C)Cc2cnc3nc(N)nc(N)c3n2)cc1)C(=O)OCC` came in with a logD of 0.98.

In turn, `COC(=O)C(C)NP(=O)(OCC1C=CC(n2cc(C)c(=O)[nH]c2=O)O1)Oc1ccc(N(C)C)cc1` (centres undefined) registered a log partition coefficient (logP) in data set [16] of 0.76.

Turning to `CC(C)OC(=O)CC(CNC(=O)OC(C)(C)C)c1ccc(Cl)cc1` (centres undefined), in data set [24], the logD was found to be 3.4.

As to `CC(C)=CCN1CC[C@@]2(C)c3cc(O)ccc3C[C@@H]1[C@@H]2C`, the logP in [25] stood at 3.31.

As for `CC(=O)[C@@]1(C)CC[C@H]2[C@@H]3CCC4=CC(=O)CCC4=C3CC[C@@]21C`, in [6], the logP stood at 4.34.

In the case of `CCn1cc(C(=O)NC(CSSCC(N)C(=O)OC)C(=O)OC)c(=O)c2ccc(C)nc21` (centres undefined), the logP in data set [26] was 0.91.

Molecule `S=c1[nH]nc(Cn2ccc3ccccc32)n1-c1cccc2ccccc12` displayed a logP in [13] of 3.12.

Take `CN(C)CCC=C1c2ccccc2CCc2ccccc21`: the logP in data set [10] stood at 5.04.

With `CNc1ccc(-c2nc3ccc(-c4nc5ccc(F)cc5s4)cc3s2)cc1`, in data set [9], the logD is 2.48.

Regarding `CC(=O)Oc1cccc2cc3cccc(OC(C)=O)c3c(OC(C)=O)c12`, the logP in data set [5] was determined as 2.02.

`OC(CCN1CCCCC1)(c1ccccc1)C1CCCCC1` (centres undefined): the logP in data set [25] is 4.49.

In turn, `CCn1cc(C(=O)NC(Cc2c[nH]cn2)C(=O)OC)c(=O)c2ccc(C)nc21` (centres undefined) returned a lipophilicity (logP) in data set [26] of 0.31.

Usually logD stands for lipophilicity at a set pH, counting ionised and neutral species. A high value points to a more lipophilic compound. As usually defined, the logP is a log measure of how a compound divides between an organic and an aqueous phase. Higher therefore signals a more lipophilic compound.
